The results in this text go back to US12428415B2, “Matriptase 2 inhibitors and uses thereof” (Disc Medicine, Inc., priority 2018, dated 2025).

The structures appear in SMILES notation.

The first experiment has as its target T1, Human Recombinant Matriptase 2 (Homo sapiens, UniProt Q8IU80).
T1 construct: purchased Enzo Life Sciences (an in-house preparation was also used) ALX-201-752-1
T1 sequence (Q8IU80 1-811): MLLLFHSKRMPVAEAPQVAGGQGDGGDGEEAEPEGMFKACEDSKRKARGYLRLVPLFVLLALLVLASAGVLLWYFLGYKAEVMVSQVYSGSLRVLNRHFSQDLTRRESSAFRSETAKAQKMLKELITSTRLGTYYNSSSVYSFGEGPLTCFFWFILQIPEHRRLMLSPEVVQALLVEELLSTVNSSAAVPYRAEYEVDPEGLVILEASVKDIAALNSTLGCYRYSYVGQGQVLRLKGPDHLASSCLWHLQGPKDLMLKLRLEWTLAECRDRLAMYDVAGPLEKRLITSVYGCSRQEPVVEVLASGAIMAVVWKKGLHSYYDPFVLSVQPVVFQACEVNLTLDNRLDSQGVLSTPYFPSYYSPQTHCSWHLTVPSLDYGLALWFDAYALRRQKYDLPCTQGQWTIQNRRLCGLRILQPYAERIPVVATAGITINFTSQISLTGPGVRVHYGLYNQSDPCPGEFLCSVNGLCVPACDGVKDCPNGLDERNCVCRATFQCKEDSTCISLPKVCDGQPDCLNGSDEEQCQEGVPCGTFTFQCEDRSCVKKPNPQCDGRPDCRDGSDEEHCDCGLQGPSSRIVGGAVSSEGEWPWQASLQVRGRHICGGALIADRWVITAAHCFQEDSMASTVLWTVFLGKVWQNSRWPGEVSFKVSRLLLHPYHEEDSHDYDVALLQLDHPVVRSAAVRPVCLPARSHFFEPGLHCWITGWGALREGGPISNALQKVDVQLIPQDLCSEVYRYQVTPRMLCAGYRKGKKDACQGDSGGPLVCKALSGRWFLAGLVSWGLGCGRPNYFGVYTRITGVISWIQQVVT
Put plainly: Matriptase 2 fluorescence based inhibition assay, Method A (100 mM TRIS pH 9, 1 mg/mL BSA). In kind it is biochemical. The conditions noted are these: 1 uM compound; Assay Used = A; read-out: Mar-2 % inhibition at 1 uM. In outline: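 Enzyme (7 nM commercial or 15 nM in-house) preincubated 30 min with compound in 100 mM TRIS pH 9, 1 mg/mL BSA, 1% DMSO at 25° C. Boc-Gln-Ala-Arg-AMC substrate at 100 μM; fluorescence (Ex 360/Em 480 nm) read 60 min later. Screened at 1 and 10 μM; IC50 from variable-slope sigmoidal fit.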
One may read the inhibition as the relative decrease from the control value, in per cent. Turning to `N/C(=N\O)c1ccc2cc(C(=O)NCC3CCNCC3)n(Cc3ccc4ccccc4c3)c2c1` [Compound I-398, 6-(N′-hydroxycarbamimidoyl)-1-(naphthalen-2-ylmethyl)-N-(piperidin-4-ylmethyl)-1H-indole-2-carboxamide], the inhibition at 1 µM lay in the range of 0 to 25%.

The same experiment, now with this note: 1 uM; Assay Used A; read-out: Mar-2 % inhibition at 1 uM.
For the compound `Cc1ccc(NC(=O)c2cc3ccc(C(=N)N)cc3n2Cc2ccc(C(N)=O)cc2)nc1` [Compound I-171], the inhibition at 1 µM was in the range of 0 to 25%. In the case of `N=C(N)c1ccc2cc(C(=O)Nc3cccc(N4CC[C@@H](F)C4)c3)n(Cc3ccc(C(N)=O)cc3)c2c1` [Compound I-140], the inhibition at 1 µM was in the range of 0 to 25%.

Consider `N=C(N)c1ccc2cc(C(=O)N[C@H]3CC[C@H](N)CC3)n(CCCc3ccccc3)c2c1` [Compound I-34], for which the inhibition at 1 µM was 25 to 50%. As for `N=C(N)c1ccc2cc(C(=O)N[C@H]3CC[C@H](NC(=O)c4ccccn4)CC3)n(Cc3ccc(C(F)(F)F)cc3)c2c1` [Compound I-9, 6-carbamimidoyl-N-((1r,4r)-4-(picolinamido)cyclohexyl)-1-(4-(trifluoromethyl)benzyl)-1H-indole-2-carboxamide], the inhibition at 1 µM fell in the range of 25 to 50%. Take `C[C@H](NC(=O)c1cc2ccc(C(=N)N)cc2n1Cc1ccc(C(N)=O)cc1)C1CCCCC1` [Compound I-193]: the inhibition at 1 µM fell in the range of 0 to 25%. The same measure, in the same setting: as for `N=C(N)c1ccc2cc(C(=O)Nc3cccc(-n4cccn4)n3)n(Cc3ccc(C(N)=O)cc3)c2c1` [Compound I-181], the figure is 0 to 25%.

`N=C(N)c1ccc2c(N)c(C(=O)NCC3CCCCC3)n(CCS(=O)(=O)c3ccccc3)c2c1` [Compound I-58, 3-Amino-6-carbamimidoyl-N-(cyclohexylmethyl)-1-(2-(phenylsulfonyl)ethyl)-1H-indole-2-carboxamide]: the inhibition at 1 µM is 0 to 25%.

As to `N=C(N)c1ccc2cc(C(=O)Nc3cc(F)cc(N4CCCC4)c3)n(Cc3ccc(C(N)=O)cc3)c2c1` [Compound I-108], the inhibition at 1 µM lay in the range of 0 to 25%.

Consider `N=C(N)c1ccc2cc(C(=O)NCC3CCNCC3)n(CCS(=O)(=O)c3ccccc3)c2c1` [Compound I-50], for which the inhibition at 1 µM lay in the range of 50 to 75%. Same read-out and setting: as for `N=C(N)c1ccc2cc(C(=O)NCCc3ccccc3)n(Cc3ccc(C(N)=O)cc3)c2c1` [Compound I-81], the figure is 0 to 25%; as for `C#CCOc1cccc(NC(=O)c2cc3ccc(C(=N)N)cc3n2Cc2ccc(C(N)=O)cc2)c1` [Compound I-146], 25 to 50%; as for `CC(C)(O)[C@@H](NC(=O)c1cc2ccc(C(=N)N)cc2n1Cc1ccc(C(N)=O)cc1)c1ccccc1` [Compound I-125], 25 to 50%.

With `N=C(N)c1ccc2cc(C(=O)N[C@H]3CC[C@H](N)CC3)n(Cc3ccc(C(N)=O)cc3)c2c1` [Compound I-184], the inhibition at 1 µM fell in the range of 25 to 50%. Same read-out and setting: as for `N=C(N)c1ccc2cc(C(=O)Nc3cccc(N4CCOCC4)c3)n(Cc3ccc(C(N)=O)cc3)c2c1` [Compound I-129], the figure is 0 to 25%; as for `COC(=O)c1ccc(Cn2c(C(=O)N[C@H]3CC[C@H](N)CC3)cc3ccc(C(=N)N)cc32)cc1` [Compound I-21, Methyl 4-((2-(((1r,4r)-4-aminocyclohexyl)carbamoyl)-6-carbamimidoyl-1H-indol-1-yl)methyl)-benzoate], 50 to 75%; as for `N=C(N)c1ccc2cc(C(=O)Nc3ccc(C(F)(F)F)cc3)n(CCS(=O)(=O)c3ccccc3)c2c1` [Compound I-43], 0 to 25%.

The experiment is the same for the next values; noted with them: at 1 uM; Assay Used = A; read-out: Mar-2 % inhibition at 1 uM.
As to `N=C(N)c1ccc2cc(C(=O)N[C@H]3CC[C@H](N)CC3)n(Cc3cccc(C(=O)NCCC(=O)O)c3)c2c1` [Compound I-259, 3-(3-((2-(((1r,4r)-4-Amiocyclohexyl)carbamoyl)-6-carbamimidoyl-1H-indol-1-yl)methyl)benzamido)propanoic Acid], the inhibition at 1 µM lay within 25 to 50%. Same read-out and setting: as for `CN(C)C(=O)c1ccc(Cn2c(C(=O)N3CCC(F)CC3)cc3ccc(C(=N)N)cc32)cc1` [Compound I-389], the figure is 0 to 25%; as for `N=C(N)c1ccc2cc(C(=O)N3CCC(F)(F)C3)n(Cc3ccc(C(N)=O)cc3)c2c1` [Compound I-331], 0 to 25%; as for `CN(C)C(=O)c1ccc(Cn2c(C(=O)NCC3CCCCC3)cc3ccc(C(=N)N)cc32)cc1` [Compound I-216, 6-Carbamimidoyl-N-(cyclohexylmethyl)-1-(4-(dimethylcarbamoyl)benzyl)-1H-indole-2-carboxamide], 0 to 25%.

`N=C(N)c1ccc2cc(C(=O)N[C@H]3CC[C@H](N)CC3)n(Cc3ccc(NC(=O)CCN)cc3)c2c1` [Compound I-262, N-((1r,4r)-4-Aminocyclohexyl)-1-(4-(3-aminopropanamido)benzyl)-6-carbamimidoyl-1H-indole-2-carboxamide]: the inhibition at 1 µM was 25 to 50%. On to `CC(C)CCn1c(C(=O)N2CCC(CCN)CC2)c(N)c2ccc(C(=N)N)cc21` [Compound I-345, 3-Amino-2-(4-(2-aminoethyl)piperidine-1-carbonyl)-1-isopentyl-1H-indole-6-carboximidamide], for which the inhibition at 1 µM fell in the range of 25 to 50%. On the same count and under the same terms, as for `N=C(N)c1ccc2cc(C(=O)N3CCC(F)(F)C3)n(Cc3ccc(NC(=O)CCN)cc3)c2c1` [Compound I-376], the figure is 0 to 25%; as for `CC1CCC(NC(=O)c2cc3ccc(C(=N)N)cc3n2Cc2ccc(C(=O)N(C)C)cc2)CC1` (stereo not shown) [Compound I-218, 6-Carbamimidoyl-1-(4-(dimethylcarbamoyl)benzyl)-N-(4-methylcyclohexyl)-1H-indole-2-carboxamide], 0 to 25%; as for `N=C(N)c1ccc2cc(C(=O)NCC3CCCCC3)n(Cc3ccc(C(=O)NCCN)cc3)c2c1` [Compound I-225, 1-(4-((2-Aminoethyl)carbamoyl)benzyl)-6-carbamimidoyl-N-(cyclohexylmethyl)-1H-indole-2-carboxamide], 0 to 25%. The same measure, in the same setting: as for `N=C(N)c1ccc2c(Cl)c(C(=O)NCC3CCCCC3)n(Cc3ccc(C(N)=O)cc3)c2c1` [Compound I-213, 6-Carbamimidoyl-1-(4-carbamoylbenzyl)-3-chloro-N-(cyclohexylmethyl)-1H-indole-2-carboxamide], the figure is 0 to 25%; as for `N=C(N)c1ccc2cc(C(=O)N3CCC4CCCCC4C3)n(CCS(=O)(=O)c3ccccc3)c2c1` (stereo not shown) [Compound I-339], 0 to 25%.

For `N=C(N)c1ccc2cc(C(=O)N3CCC(F)CC3)n(CCS(=O)(=O)c3ccccc3)c2c1` [Compound I-343], the inhibition at 1 µM lay in the range of 0 to 25%. Same read-out and setting: next, `N=C(N)c1ccc2c(Cl)c(C(=O)N3CCC(F)CC3)n(Cc3ccc(C(N)=O)cc3)c2c1` [Compound I-355]: 0 to 25%; `NC(=O)c1ccc(Cn2c(C(=O)Nc3cccc(N4CCCC4)c3)cc3ccc(/C(N)=N/O)cc32)cc1` [Compound I-267, 1-(4-Carbamoylbenzyl)-6-(N′-hydroxycarbamimidoyl)-N-(3-(pyrrolidin-1-yl)phenyl)-1H-indole-2-carboxamide]: 0 to 25%; `N=C(N)c1ccc2c(Cl)c(C(=O)N[C@H]3CC[C@H](N)CC3)n(Cc3ccc(Oc4ccccc4)cc3)c2c1` [Compound I-251]: 25 to 50%. For the compound `CC1CCC(NC(=O)c2c(Cl)c3ccc(C(=N)N)cc3n2Cc2ccc(-c3ccccc3)cc2)CC1` (stereo not shown) [Compound I-237], the inhibition at 1 µM fell in the range of 0 to 25%. Consider `N=C(N)c1ccc2cc(C(=O)N3CCC(CCN)CC3)n(Cc3ccc(Oc4cccc(C(F)(F)F)c4)cc3)c2c1` [Compound I-319], for which the inhibition at 1 µM lay within 25 to 50%.

As to `N=C(N)c1ccc2cc(C(=O)N3CCC(C(=O)NCCCN)CC3)n(Cc3ccc(C(F)(F)F)cc3)c2c1` [Compound I-356, N-(3-Aminopropyl)-1-(6-carbamimidoyl-1-(4-(trifluoromethyl)benzyl)-1H-indole-2-carbonyl)-piperidine-4-carboxamide], the inhibition at 1 µM lay within 0 to 25%. Take `COc1ccc(CCn2c(C(=O)N3CCC(CCN)CC3)cc3ccc(C(=N)N)cc32)cc1` [Compound I-302]: the inhibition at 1 µM was in the range of 25 to 50%. Still for that read-out and setting: next, `N=C(N)c1ccc2cc(C(=O)N3CCC(F)(F)C3)n(Cc3cccc(C(N)=O)c3)c2c1` [Compound I-324]: 0 to 25%; `CN1CCC(NC(=O)c2cc3ccc(C(=N)N)cc3n2Cc2ccc(C(N)=O)cc2)CC1` [Compound I-206]: 25 to 50%. `N=C(N)c1ccc2c(N)c(C(=O)N3CCC(CCNC(=O)O)CC3)n(Cc3ccc(Oc4ccccc4)cc3)c2c1` [Compound I-347]: the inhibition at 1 µM was in the range of 0 to 25%. Still for that read-out and setting: as for `N=C(N)c1ccc2cc(C(=O)N3CCCC4CCCCC43)n(CCS(=O)(=O)c3ccccc3)c2c1` (stereo not shown) [Compound I-338], the figure is 0 to 25%.
